{"source": "patent US7449494B1", "about": "“Polymeric skin moisturizing compounds” (SurfaTech Corporation, priority 2004, dated 2008)", "system": "rough dry skin", "test": "Skin moisturization evaluation: appearance of treated skin under the dissection microscope", "format": "in vivo", "settings": "5% solution applied to skin; scale of 1 to 5, 1 being poor and 5 being best", "excerpt": "The effect of moisturization can be measured by the appearance of the skin when treated. Untreated skin that is in need of moisturization is rough, scaly and dry looking under the dissection microscope. The application of the moisturization solution to the skin and its effect upon minimizing roughness, scaling and dry appearance is a good measure of moisturization. We performed such an evaluation and rated the performance of a scale of 1 to 5. 1 being poor and 5 being best.", "data": [{"smiles": "C[N+](C)(C)CCO", "note": "[Choline]", "values": [{"measurement": "Rating (moisturization: minimizing roughness, scaling and dry appearance)", "value": 4}]}, {"smiles": "OCC(O)CO", "note": "[Glycerin]", "values": [{"measurement": "Rating (moisturization: minimizing roughness, scaling and dry appearance)", "value": 2}]}]}
